Each structure is given as a SMILES string. Counter-ions that a name gives are not always drawn.

In this test the target is human Factor XIa (Homo sapiens, UniProt P03951). The test is described as follows: biochemical. As to conditions: purified human Factor XIa, substrate S-2366, HEPES buffer pH 7.4.
Chain of human Factor XIa (P03951 388-625 limits assumed): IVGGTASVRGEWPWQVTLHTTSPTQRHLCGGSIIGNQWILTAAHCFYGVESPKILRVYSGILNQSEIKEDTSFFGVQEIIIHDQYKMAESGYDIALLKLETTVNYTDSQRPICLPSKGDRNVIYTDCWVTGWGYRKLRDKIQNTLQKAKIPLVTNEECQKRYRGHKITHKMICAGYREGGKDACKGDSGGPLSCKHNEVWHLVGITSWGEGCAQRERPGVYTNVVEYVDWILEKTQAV
Chain of human Factor XIa (P03951 19-387 partner limits assumed): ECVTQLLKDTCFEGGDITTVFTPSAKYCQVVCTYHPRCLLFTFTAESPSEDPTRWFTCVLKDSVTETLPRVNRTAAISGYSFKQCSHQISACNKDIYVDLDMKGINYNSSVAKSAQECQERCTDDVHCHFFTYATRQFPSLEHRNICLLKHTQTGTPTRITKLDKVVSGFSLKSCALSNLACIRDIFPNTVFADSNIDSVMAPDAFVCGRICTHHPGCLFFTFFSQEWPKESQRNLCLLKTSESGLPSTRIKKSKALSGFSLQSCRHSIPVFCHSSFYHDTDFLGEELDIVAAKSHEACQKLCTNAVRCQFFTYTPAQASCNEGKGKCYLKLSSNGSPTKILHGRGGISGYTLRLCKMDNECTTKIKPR

Usually Ki stands for the equilibrium dissociation constant of an inhibitor or competing ligand from its target. As for `C[C@@H]1CCC[C@H](n2cnc(-c3cc(Cl)ccc3-n3cc(Cl)nn3)cc2=O)c2cc(ccn2)-c2cc(S(C)(=O)=O)ccc2NC1=O` [Example 67, (10R,14S)-14-{4-[5-chloro-2-(4-chloro-1H-1,2,3-triazol-1-yl)phenyl]-6-oxo-1,6-dihydropyrimidin-1-yl}-4-methanesulfonyl-10-methyl-8,16-diazatricyclo [13.3.1.0^2,7]nonadeca-1(19),2(7),3,5,15,17-hexaen-9-one], the Ki worked out at 11 nM.

The compound `COC(=O)c1ccc(Cl)cc1-c1cc(=O)n([C@H]2CCC[C@@H](C)C(=O)Nc3ccc(F)cc3-c3ccnc2c3)cn1` [Example 68, methyl 4-chloro-2-{1-[(10R,14S)-4-fluoro-10-methyl-9-oxo-8,16-diazatricyclo[13.3.1.0^2,7]nonadeca-1(19),2(7),3,5,15,17-hexaen-14-yl]-6-oxo-1,6-dihydropyrimidin-4-yl}benzoate] yielded an inhibition constant (Ki) of 39 nM.

Turning to `C[C@@H]1CCC[C@H](n2cnc(-c3cc(Cl)ccc3-n3cc(C#N)nn3)cc2=O)c2cc(ccn2)-c2ccc(C(F)F)cc2NC1=O` [Example 70, 1-(4-chloro-2-{1-[(10R,14S)-5-(difluoromethyl)-10-methyl-9-oxo-8,16-diazatricyclo[13.3.1.0^2,7]nonadeca-1(19),2(7),3,5,15,17-hexaen-14-yl]-6-oxo-1,6-dihydropyrimidin-4-yl}phenyl)-1H-1,2,3-triazole-4-carbonitrile], the Ki turned out to be 0.26 nM.

For the compound `Cc1ccc2c(c1)NC(=O)[C@H](C)CCC[C@H](n1cnc(-c3cc(Cl)ccc3-n3cc(C(F)(F)F)nn3)cc1=O)c1cc-2ccn1` [Example 78, (10R,14S)-14-(4-{5-chloro-2-[4-(trifluoromethyl)-1H-1,2,3-triazol-1-yl]phenyl}-6-oxo-1,6-dihydropyrimidin-1-yl)-5,10-dimethyl-8,16-diazatricyclo [13.3.1.0^2,7]nonadeca-1(19),2(7),3,5,15,17-hexaen-9-one], the affinity, expressed as Ki, was 0.42 nM.

With `C[C@@H]1CCC[C@H](n2cnc(-c3cc(Cl)ccc3-n3cc(Cl)nn3)cc2=O)c2cc(ccn2)-c2ccc(O)cc2NC1=O` [Example 85, (10R,14S)-14-{4-[5-chloro-2-(4-chloro-1H-1,2,3-triazol-1-yl)phenyl]-6-oxo-1,6-dihydropyrimidin-1-yl}-5-hydroxy-10-methyl-8,16-diazatricyclo[13.3.1.0^2,7]nonadeca-1(19),2(7),3,5,15,17-hexaen-9-one trifluoroacetate], the Ki is 0.1 nM.

On to `C[C@@H]1CCC[C@H](n2cnc(-c3cc(Cl)ccc3-n3cc(Cl)nn3)cc2=O)c2cc(ccn2)-c2ccc(C(F)(F)C(N)=O)cc2NC1=O` [Example 90, 2-[(10R,14S)-14-{4-[5-chloro-2-(4-chloro-1H-1,2,3-triazol-1-yl)phenyl]-6-oxo-1,6-dihydropyrimidin-1-yl}-10-methyl-9-oxo-8,16-diazatricyclo[13.3.1.0^2,7]nonadeca-1(19),2(7),3,5,15,17-hexaen-5-yl]-2,2-difluoroacetamide trifluoroacetate], for which the Ki was 7.1 nM.

In turn, `C[C@@H]1CCC[C@H](n2cnc(-c3cc(Cl)ccc3-n3cc(C(F)(F)F)nn3)cc2=O)c2cc(ccn2)-c2c(Cl)cccc2NC1=O` [Example 105, (10R,14S)-3-chloro-14-(4-{5-chloro-2-[4-(trifluoromethyl)-1H-1,2,3triazol-1-yl]phenyl}-6-oxo-1,6-dihydropyrimidin-1-yl)-10-methyl-8,16-diazatricyclo[13.3.1.0^2,7]nonadeca-1(19),2(7),3,5,15,17-hexaen-9-one] registered a Ki of 0.41 nM.

On to `C[C@@H]1CCC[C@H](n2cnc(-c3cc(Cl)ccc3-c3csnn3)cc2=O)c2cc(ccn2)-c2cc(F)ccc2NC1=O` [Example 117, (10R,14S)-14-{4-[5-chloro-2-(1,2,3-thiadiazol-4-yl)phenyl]-6-oxo-1,6-dihydropyrimidin-1-yl}-4-fluoro-10-methyl-8,16-diazatricyclo[13.3.1.0^2,7]nonadeca-1(19),2(7),3,5,15,17-hexaen-9-one], for which the Ki is 2.7 nM.

The compound `C[C@@H]1CCC[C@H](n2cnc(-c3cc(Cl)cc4cnn(C)c34)cc2=O)c2cc(ccn2)-c2ccccc2NC1=O` [Example 119, (10R,14S)-14-[4-(5-chloro-1-methyl-1H-indazol-7-yl)-6-oxo-1,6-dihydropyrimidin-1-yl]-10-methyl-8,16-diazatricyclo[13.3.1.0^2,7]nonadeca-1(19),2(7),3,5,15,17-hexaen-9-one] showed an inhibition constant Ki of 100 nM.

For `C[C@@H]1CCC[C@H](n2cnc(-c3c(-n4cc(C(F)F)nn4)ccc(Cl)c3F)cc2=O)c2cc(ccn2)-c2cc(F)ccc2NC1=O` [Example 134, (10R,14S)-14-(4-{3-chloro-6-[4-(difluoromethyl)-1H-1,2,3-triazol-1-yl]-2-fluorophenyl}-6-oxo-1,6-dihydropyrimidin-1-yl)-4-fluoro-10-methyl-8,16-diazatricyclo [13.3.1.0^2,7]nonadeca-1(19),2(7),3,5,15,17-hexaen-9-one trifluoroacetate], the affinity corresponds to a Ki of 0.16 nM.

Compound `C[C@@H]1CCC[C@H](n2cnc(-c3cc(Cl)ccc3-n3cc(Cl)nn3)cc2=O)c2cc(ccn2)-c2cc(F)ccc2NC1=O` [Example 140, (10R,14S)-14-{4-[5-chloro-2-(4-chloro-1H-1,2,3-triazol-1-yl)phenyl]-6-oxo-1,6-dihydropyrimidin-1-yl}-4-fluoro-10-methyl-8,16-diazatricyclo[13.3.1.0^2,7]nonadeca-1(19),2(7),3,5,15,17-hexaen-9-one trifluoroacetate] gave an inhibition constant Ki of 0.1 nM.

`C[C@@H]1CCC[C@H](n2cnc(-c3c(C(F)(F)F)ccc(Cl)c3F)cc2=O)c2cc(ccn2)-c2cc(F)ccc2NC1=O` [Example 143, (10R,14S)-14-{4-[3-chloro-2-fluoro-6-(trifluoromethyl)phenyl]-6-oxo-1,6-dihydropyrimidin-1-yl}-4-fluoro-10-methyl-8,16-diazatricyclo[13.3.1.0^2,7]nonadeca-1(19),2(7),3,5,15,17-hexaen-9-one trifluoroacetate] registered an inhibition constant Ki of 17 nM.

The compound `C[C@@H]1CCC[C@H](n2cnc(-c3cc(Cl)ccc3-n3cc(C#N)nn3)cc2=O)c2cc(ccn2)-c2cc(F)ccc2NC1=O` [Example 148, 1-(4-chloro-2-{1-[(10R,14S)-4-fluoro-10-methyl-9-oxo-8,16-diazatricyclo [13.3.1.0^2,7]nonadeca-1(19),2(7),3,5,15,17-hexaen-14-yl]-6-oxo-1,6-dihydropyrimidin-4-yl}phenyl)-1H-1,2,3-triazole-4-carbonitrile trifluoroacetate] came in with a Ki of 0.1 nM.

`COc1ccc(Cl)cc1-c1cc(=O)n([C@H]2CCC[C@@H](C)C(=O)Nc3ccc(F)cc3-c3ccnc2c3)cn1` [Example 150, (10R,14S)-14[4-(5-chloro-2-methoxyphenyl)-6-oxo-1,6-dihydropyrimidin-1-yl]-4-fluoro-10-methyl-8,16-diazatricyclo[13.3.1.0^2,7]nonadeca-1(19),2(7),3,5,15,17-hexaen-9-one trifluoroacetate] yielded a Ki of 310 nM.

For the origin of these results see patent US9777001B2 (priority 2014, dated 2017).
